Here are results for 23 compounds from patent publication US9216998B2, “Tricyclic indole derivatives useful endothelial lipase inhibitors” (Janssen Pharmaceutica, NV, priority 2012, dated 2015).

The target of experiment [1] is human endothelial lipase (EL) (Homo sapiens (Human), UniProt Q9Y5X9). Nature of the experiment: Endothelial lipase assay, cell surface lipase activity (human EL). The note with it: cells expressing human EL, PLA1 substrate 10 μM, fluorescence rate. The class given is cell-based. As to the method:
(§1) To assay for cell surface lipase activity, cells expressing human endothelial lipase (EL) or LPL were plated in CellBIND® 384-well plates (Corning, Lowell, Mass.) in 25 μL serum free medium at a density of 2000 cells/well. After 18-24 hours incubation at 37° C., the medium was removed and replaced with 15 μL assay buffer [Hank's Buffered Saline Solution with 25 mM HEPES pH 7.2] and 15 μL PLA1 substrate for a final concentration of 10 μM using a Multidrop reagent dispenser. Fluorescence signal was monitored for 30 min at 37° C. on a Safire II plate reader in kinetic mode (60 cycles, kinetic interval: 30 seconds) with an excitation wavelength of 490 nm and an emission wavelength of 515 nm. […] The amount of BODIPY-labeled product generated was calculated at the 30 min time point as determined from standard curve analysis of purified BODIPY FL C5.

In experiment [2] the target is Mouse EL (Mus musculus (Mouse), UniProt Q9WVG5). Nature of the experiment: Endothelial lipase assay, cell surface lipase activity (mouse EL). Format: cell-based. The settings on record: PLA1 substrate 10 μM, fluorescence rate. The method, then: [The source words this procedure for another species and reports this species under the same test.] as §1

Structures are written as SMILES.

Sequence of Mouse EL (Q9WVG5 21-500): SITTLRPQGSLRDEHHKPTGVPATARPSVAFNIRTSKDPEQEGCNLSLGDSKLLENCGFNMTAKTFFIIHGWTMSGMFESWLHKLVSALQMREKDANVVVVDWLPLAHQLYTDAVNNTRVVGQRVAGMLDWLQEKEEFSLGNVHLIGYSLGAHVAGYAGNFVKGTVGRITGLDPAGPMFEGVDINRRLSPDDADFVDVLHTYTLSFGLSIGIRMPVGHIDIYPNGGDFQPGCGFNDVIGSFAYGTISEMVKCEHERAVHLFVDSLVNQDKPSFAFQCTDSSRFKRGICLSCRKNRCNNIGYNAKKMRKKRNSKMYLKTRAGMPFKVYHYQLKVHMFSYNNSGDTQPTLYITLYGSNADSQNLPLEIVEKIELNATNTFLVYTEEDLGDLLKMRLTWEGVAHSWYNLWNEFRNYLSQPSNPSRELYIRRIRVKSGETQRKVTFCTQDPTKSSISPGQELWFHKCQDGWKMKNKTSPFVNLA
Sequence of human endothelial lipase (EL) (Q9Y5X9 21-500): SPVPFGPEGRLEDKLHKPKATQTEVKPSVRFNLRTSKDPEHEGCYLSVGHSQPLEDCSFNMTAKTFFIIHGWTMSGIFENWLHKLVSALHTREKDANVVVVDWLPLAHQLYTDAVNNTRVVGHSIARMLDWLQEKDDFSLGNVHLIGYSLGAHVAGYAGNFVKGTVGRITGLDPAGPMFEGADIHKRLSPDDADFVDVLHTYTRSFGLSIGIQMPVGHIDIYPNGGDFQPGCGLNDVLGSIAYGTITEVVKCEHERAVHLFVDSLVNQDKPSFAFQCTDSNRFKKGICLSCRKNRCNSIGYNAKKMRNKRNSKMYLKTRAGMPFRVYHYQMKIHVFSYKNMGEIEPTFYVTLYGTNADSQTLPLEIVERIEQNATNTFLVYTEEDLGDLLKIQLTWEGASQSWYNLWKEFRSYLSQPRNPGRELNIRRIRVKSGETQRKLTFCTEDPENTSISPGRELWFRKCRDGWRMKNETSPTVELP

With `N=C(N)N1CCn2c(CCc3ccccc3)c(C(F)(F)F)c3cccc(c32)C1` [Compound 17, 6-phenethyl-7-(trifluoromethyl)-3,4-dihydro-[1,4]diazepino[6,7,1-hi]indole-2(1H)-carboximidamide], the IC50 amounted to 4820 nM in experiment [1] and 3620 nM in experiment [2].
In the same order, the values of `OCCN1CCn2c(CCc3ccccc3)c(C(F)(F)F)c3cccc(c32)C1` [Compound 23, 2-(6-phenethyl-7-(trifluoromethyl)-3,4-dihydro-[1,4]diazepino[6,7,1-hi]indol-2(1H)-yl)ethanol] are 280 nM and 346 nM.
The corresponding values for `O=C(CC(F)(F)F)N1CCn2c(CCc3ccccc3)c(C(F)(F)F)c3cccc(c32)C1` [Compound 21, 3,3,3-trifluoro-1-(6-phenethyl-7-(trifluoromethyl)-3,4-dihydro-[1,4]diazepino[6,7,1-hi]indol-2(1H)-yl)propan-1-one] are 255 nM and 237 nM.
In the same order, the values of `O=C(Nc1ccccc1)N1CCn2c(CCc3ccccc3)c(C(F)(F)F)c3cccc(c32)C1` [Compound 14, 6-phenethyl-N-phenyl-7-(trifluoromethyl)-3,4-dihydro-[1,4]diazepino[6,7,1-hi]indole-2(1H)-carboxamide] are 168 nM and 162 nM.
On to `FC(F)(F)c1c(CCCc2ccccc2)n2c3c(cccc13)CCCC2` [Compound 11], for which the values for the IC50 in experiment [1] and in experiment [2] were 360 nM and 1200 nM, respectively.
For `FC(F)(F)c1c(CCc2ccccc2)n2c3c(cccc13)CNCC2` [Compound 15, 6-phenethyl-7-(trifluoromethyl)-1,2,3,4-tetrahydro-[1,4]diazepino[6,7,1-hi]indole], the IC50 came out at 694 nM in experiment [1] and 677 nM in experiment [2].
The corresponding values for `FC(F)(F)c1c(CCCc2ccccc2)n2c3c(cccc13)OCC2` [Compound 26] are 413 nM and 618 nM.
Regarding `FC(F)(F)c1c(CCCc2ccccc2)n2c3c(cccc13)CC2` [Compound 1], the IC50 stood at 185 nM in experiment [1] and 195 nM in experiment [2].
The corresponding values for `FC(F)(F)c1c(CCc2ccccc2)n2c3c(cccc13)CCC2` [Compound 2, 2-Phenethyl-1-(trifluoromethyl)-5,6-dihydro-4H-pyrrolo[3,2,1-ij]quinoline, reference compound] are 22 nM and 48 nM.
In the same order, the values of `CC(=O)OCC(=O)N1CCn2c(CCc3ccccc3)c(C(F)(F)F)c3cccc(c32)C1` [Compound 20, 2-oxo-2-(6-phenethyl-7-(trifluoromethyl)-3,4-dihydro-[1,4]diazepino[6,7,1-hi]indol-2(1H)-yl)ethyl acetate] are 442 nM and 479 nM.
In the case of `Oc1cc2c3c(c1)c(C(F)(F)F)c(CCc1ccccc1)n3CCC2` [Compound 6], the IC50 in experiment [1] is 71 nM; in experiment [2] it was 136 nM.
Take `CN(C)CC(=O)N1CCn2c(CCc3ccccc3)c(C(F)(F)F)c3cccc(c32)C1` [Compound 16, 2-(dimethylamino)-1-(6-phenethyl-7-(trifluoromethyl)-3,4-dihydro-[1,4]diazepino[6,7,1-hi]indol-2(1H)-yl)ethanone]: the IC50 in experiment [1] worked out at 959 nM; in experiment [2] it was 1000 nM.
In the same order, the values of `FC(F)(F)c1c(CCCOc2ccccc2)n2c3c(cccc13)OCC2` [Compound 27] are 82 nM and 108 nM.
In the same order, the values of `FC(F)(F)c1c(CCc2ccccc2)n2c3c(cccc13)CCCC2` [Compound 9, 2-phenethyl-1-(trifluoromethyl)-4,5,6,7-tetrahydroazepino[3,2,1-hi]indole] are 43 nM and 36 nM.
In the same order, the values of `CC(C)NC(=O)N1CCn2c(CCc3ccccc3)c(C(F)(F)F)c3cccc(c32)C1` [Compound 12, N-isopropyl-6-phenethyl-7-(trifluoromethyl)-3,4-dihydro-[1,4]diazepino[6,7,1-hi]indole-2(1H)-carboxamide] are 135 nM and 131 nM.
With `FC(F)(F)c1c(CCc2ccccc2)n2c3c(cccc13)OCC2` [Compound 25, 5-phenethyl-6-(trifluoromethyl)-2,3-dihydro-[1,4]oxazino[2,3,4-hi]indole], the IC50 in experiment [1] was determined as 39 nM; in experiment [2], 31 nM.
With `FC(F)(F)c1c(CCCc2ccccc2)n2c3c(cccc13)SCC2` [Compound 28], the IC50 in experiment [1] and in experiment [2] was 33300 nM throughout.
On to `FC(F)(F)c1c(CCCc2ccccc2)n2c3c(cccc13)CCC2` [Compound 4], for which the IC50 in experiment [1] is 143 nM; in experiment [2], 205 nM.
The corresponding values for `COc1cc2c3c(c1)c(C(F)(F)F)c(CCc1ccccc1)n3CCC2` [Compound 5] are 14 nM and 17 nM.
Consider `CC(C)(C)OC(=O)N1CCn2c(CCc3ccccc3)c(C(F)(F)F)c3cccc(c32)C1` [Compound 13, tert-butyl 6-phenethyl-7-(trifluoromethyl)-3,4-dihydro-[1,4]diazepino[6,7,1-hi]indole-2(1H)-carboxylate], for which the IC50 turned out to be 150 nM in experiment [1] and 124 nM in experiment [2].
In the same order, the values of `NCC(=O)N1CCn2c(CCc3ccccc3)c(C(F)(F)F)c3cccc(c32)C1` [Compound 18, 2-amino-1-(6-phenethyl-7-(trifluoromethyl)-3,4-dihydro-[1,4]diazepino[6,7,1-hi]indol-2(1H)-yl)ethanone] are 2020 nM and 1880 nM.
In the same order, the values of `FC(F)(F)c1c(Cc2ccccc2)n2c3c(cccc13)CCC2` [Compound 3] are 115 nM and 96 nM.
In the same order, the values of `CS(=O)(=O)N1CCn2c(CCc3ccccc3)c(C(F)(F)F)c3cccc(c32)C1` [Compound 24, 2-(methylsulfonyl)-6-phenethyl-7-(trifluoromethyl)-1,2,3,4-tetrahydro-[1,4]diazepino[6,7,1-hi]indole] are 186 nM and 340 nM.

A word on the IC50: it is the concentration that gives 50% inhibition.
